The source of these data is US20250223560A1, “NOX4 INHIBITOR COMPOSITIONS AND METHODS FOR REGENERATION OF DYSTROPHIC MUSCLE” (FULCRUM THERAPEUTICS, INC., priority 2022, published 2025).

As usually defined, the IC50 is the point on the concentration scale where inhibition reaches its midpoint. By Ki is commonly meant a measure of affinity in units of concentration, obtained from inhibition or displacement.

Read-outs that look alike come from different tables or passages of the source.

One data set deals with myoblast-FAP co-cultures. As to conditions: 0.1 uM, 3 days of differentiation, vs DMSO.
For data set [1] the following is noted: as described; cited from earlier work.
Data set [2] relates to Bone Marrow Derived Mesenchymal Stem Cells, human (BM-MSC); myofibroblast content. As to the kind of experiment: Myofibroblast reduction phenotype in TGF-beta-1 fibrogenic differentiation culture (high-content imaging). Format: cell-based. Here is the method: (§1) Bone Marrow Derived Mesenchymal Stem Cells, human (BM-MSC, ATCC PCS-500-012) were cultured in medium composed of Mesenchymal Stem Cell Basal Medium foe Adipose, Umbilcal and Bone Marrow-derived MSCs (ATCC PCS-400030 and Mesenchymal Stem Cell Growth for Bone Marrow-derived MSCs (ATCC PCS-500-041). Cells were seeded at a density of 15,000 cells/well in a 96-well format.
(§2) To induce fibrogenic differentiation BM-MSCs were cultured in a medium composed by Dulbecco's Modified Eagle Medium, 2% horse serum (HS) (Sigma H1270) and 5-10 ng/ml TGF-beta-1 (PreproTech 100-21). Cells were cultured in basal media for 2 days before being switched to fibrogenic differentiation media for 5 days, after which they were taken down for downstream assays. Compound treatment was added when media was switched to fibrogenic differentiation media, cells were treated with 0.1% DMSO if not receiving compound.
(§3) Cells were fixed in 4% PFA for 10 min at RT. Fixed cells were washed three times in 1×PBS and incubated in permeabilization solution (0.5% Triton X-100 in 1×PBS) for 10 min. Unspecific binding were saturated by incubating samples in blocking solution (5% donkey serum in 1×PBS) for 1 h. The cells were incubated at RT for 1 hour with gentle shaking in the presence of primary antibody against, alpha-smooth muscle actin (1:1000, Sigma™ A5228). The cells were washed three times with 0.05% Tween-20 in 1×PBS and incubated, for 1 hour at RT, with host-specific secondary antibodies in addition to counterstaining for Alexa Fluor Plus 750 Phalloidin (1:2000, Invitrogen™, A30105) and DAPI (1:2000). Primary and secondary antibodies were diluted according to the manufacturer's recommendations in blocking solution+0.1% Triton X-100. Finally, the cells were washed three times with 0.05% Tween-20 in 1×PBS, washed twice with 1×PBS and stored at 4° C. Images were acquired on a Thermo Scientific™ CellInsight™ CX7LED high content analysis (HCA) imaging instrument using a 10× objective. Nine fields per well were captured for quantification.
Columbus™ software (version 2.9.1, Perkin Elmer®) was used for analysis of acquired images. A custom analysis pipeline was constructed to quantify the percentage of myofibroblasts within the well. First, nuclei were segmented using “Method B” and intensity and morphology properties were calculated using standard settings. Second, viable nuclei were identified by gating on nuclei intensity, area, and roundness of the segmented objects. Next, a region of interest was then defined around the selected viable nuclei by expanding the outer boarder by […]. STAR morphology and SER texture properties were calculated within the region of interest for the alpha-smooth muscle actin and phalloidin channels using the following parameters: profile width=4 px, scale=1 px, Kernel normalization. The calculated morphology and texture properties were used to train a linear classifier consisting of two classes, myofibroblasts and mesenchymal stem cells, by selecting >100 objects in each negative control (DMSO) and positive control (fibrogenic differentiation media) conditions. The linear classifier was then applied to the untrained test wells using a batch analysis to calculate the percentage of myofibroblasts within each image using a formula output (myofibroblasts:number of objects/viable nuclei:number of objects)*100. Results were averaged across the nine fields imaged per well.
The initial six NOX4 inhibitors were assessed in replicate experiments for both potency of myofibroblast reducing activity and an associated IC50 for the myofibroblast reduction phenotype was determined (Table 1).

The subject of a further data set is cells. As to conditions: as described in the art; cited from earlier work.
The next data set concerns the target T1, NOX4 (Homo sapiens, UniProt Q9NPH5).
T1 sequence (Q9NPH5 1-578): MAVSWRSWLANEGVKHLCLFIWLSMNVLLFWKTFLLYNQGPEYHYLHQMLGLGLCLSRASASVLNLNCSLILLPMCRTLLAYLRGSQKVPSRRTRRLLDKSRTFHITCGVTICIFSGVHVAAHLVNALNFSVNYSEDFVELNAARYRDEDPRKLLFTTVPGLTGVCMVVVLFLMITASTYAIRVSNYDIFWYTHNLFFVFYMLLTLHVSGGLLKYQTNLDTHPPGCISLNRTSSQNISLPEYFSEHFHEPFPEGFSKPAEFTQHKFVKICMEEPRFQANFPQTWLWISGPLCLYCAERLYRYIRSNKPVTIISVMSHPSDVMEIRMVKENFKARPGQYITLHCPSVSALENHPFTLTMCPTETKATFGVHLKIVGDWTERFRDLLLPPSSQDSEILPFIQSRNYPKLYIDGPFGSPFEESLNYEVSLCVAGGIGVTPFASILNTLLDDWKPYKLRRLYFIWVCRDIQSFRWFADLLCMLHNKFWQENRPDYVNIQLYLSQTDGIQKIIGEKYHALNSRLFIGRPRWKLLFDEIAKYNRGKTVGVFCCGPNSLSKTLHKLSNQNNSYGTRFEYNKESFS
T1 sequence (P13498 1-195 partner): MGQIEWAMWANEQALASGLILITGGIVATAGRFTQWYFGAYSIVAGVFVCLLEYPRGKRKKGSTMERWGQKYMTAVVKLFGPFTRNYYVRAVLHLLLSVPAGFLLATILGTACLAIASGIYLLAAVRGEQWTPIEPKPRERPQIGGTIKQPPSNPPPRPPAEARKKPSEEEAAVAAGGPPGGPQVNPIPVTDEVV
As to conditions: cited from earlier work.

A further data set concerns mesenchymal stem cells. Kind of data set: Phalloidin (F-actin) / alpha-SMA staining of treated mesenchymal stem cells. Format: cell-based, human. As to conditions: for phalloidin (F-actin) staining / α-SMA immunofluorescence and phalloidin (F-actin) staining: 1 μM; for α-SMA immunofluorescence and phalloidin (F-actin) staining: FIG. 15. How it is done:
as §1, §2, §3

The mark [3] stands for this setting: Homo sapiens, BMMSC, first experiment, read-out: IC50 Phenotype (myofibroblast reduction).
The mark [4] stands for this setting: Homo sapiens, BMMSC, replicate experiment, read-out: IC50 Phenotype Replicate.
Setting [5] is: reported value, read-out: Reported Potency, IC50.

Excerpt for myoblast-FAP co-cultures: The impact of NOX4 inhibition on myogenic differentiation in myoblast-FAP co-cultures was investigated using primary myoblasts isolated from wild-type, uninjured mouse muscles and FAPs isolated from cardiotoxin-injured muscles of ROSA26-tdTomato mice (such mice contain cells that constitutively express the tdTomato fluorescent marker). […] Following 3 days of differentiation, cells were fixed in 4% paraformaldehyde (PFA) and stained for myosin heavy chain (MHC; marker of myogenic differentiation).

Regarding `c1ccc2c(c1)[I+]c1ccccc1-2` [DPI, diphenyleneiodonium chloride], in the data set on myoblast-FAP co-cultures, the “MHC-positive myocytes (number of cells per mm^2)” value is “statistically significant increase” and the “myogenic differentiation of myoblasts (MHC staining)” value was “significantly increased”.

On to `CCOC(=O)c1c(NC(=O)CN2CCN(C(=O)c3ccco3)CC2)sc2c1CCC2` [FTX7971], for which the oral bioavailability entry in data set [1] is “orally bioavailable”. Besides, the IC50 in data set [2] (setting [3]) was 4.03 µM; in data set [2] (setting [4]) it was 5.21 µM. Further, the “concentration of described activity in cells” value in the data set with cells is recorded as “about 5 μM”.

As to `c1ccc(Cn2nnc3c(Sc4nc5ccccc5o4)ncnc32)cc1` [FTX7972], the IC50 in data set [2] (setting [3]) stood at 0.889 µM; in data set [2] (setting [4]), 0.898 µM.

As for `CCCc1c(-c2ccccc2)nn(-c2ccccn2)c1O` [FTX7973], the IC50 in data set [2] (first experiment, unit nm [sic], read-out: IC50 Phenotype (myofibroblast reduction)) came out at 0.638 µM; in data set [2] (replicate experiment, unit nm [sic], read-out: IC50 Phenotype Replicate), 0.781 µM.

As to `CC(CNS(=O)(=O)c1ccc(C(F)(F)F)cc1)N1CCc2ccccc21` (stereo not drawn) [FTX7974], the IC50 is 2 µM at NOX4 (setting [5]), 0.357 µM in data set [2] (setting [3]) and 0.333 µM in data set [2] (setting [4]). In addition, the “phalloidin (F-actin) staining” value with mesenchymal stem cells is reported as “significant phalloidin staining”. For the same compound, the “α-SMA immunofluorescence and phalloidin (F-actin) staining” value (“α-SMA immunofluorescence and phalloidin” below) in the data set with mesenchymal stem cells was “exhibited both α-SMA immunofluorescence and phalloidin (F-actin) staining”.

As to `Cc1ccccc1CCNS(=O)(=O)c1c(Cl)cc(Br)cc1Cl` [FTX7981], the IC50 was 0.3 µM on NOX4 (reported, read-out: IC50 NOX4); 0.253 µM in data set [2] (setting [3]); 0.342 µM in data set [2] (setting [4]). Moreover, in the data set with mesenchymal stem cells, the “α-SMA immunofluorescence and phalloidin” value was “exhibited both α-SMA immunofluorescence and phalloidin (F-actin) staining”.

In the case of `Cc1ccc(N2CCN(Cc3nc(N)nc(Nc4ccc(C)c(C)c4)n3)CC2)cc1` [FTX7983], the “α-SMA immunofluorescence and phalloidin” value with mesenchymal stem cells was “exhibited both α-SMA immunofluorescence and phalloidin (F-actin) staining”. In addition, the IC50 came to 0.331 µM in data set [2] (Homo sapiens, BMMSC, first experiment, unit nm [sic], read-out: IC50 Phenotype (myofibroblast reduction)) and 0.401 µM in data set [2] (Homo sapiens, BMMSC, replicate experiment, unit nm [sic], read-out: IC50 Phenotype Replicate).

For `O=c1c2c3n(c(=O)cc2[nH]n1-c1ccccc1Cl)CCCN(Cc1ccccc1)C3` [FTX7990], the Ki at NOX4 (reported value, read-out: Reported Potency, Ki) is 0.07 µM. In addition, in data set [1], the oral bioavailability entry is recorded as “orally bioavailable”. The IC50 was 0.158 µM in data set [2] (setting [3]) and 0.149 µM in data set [2] (setting [4]). Besides, the “reduction of myofibroblast content (concentration-response)” value in data set [2] (treated cells in culture) is on record as “dose-dependent reduction of myofibroblast content”.

As to `COc1cc(NC(=O)c2ccc3cc(Cl)ccc3c2)c(C(=O)O)cc1C#N` [FTX7995], the IC50 on NOX4 (setting [5]) was 0.002 µM; in data set [2] (setting [3]), 0.0088 µM; in data set [2] (setting [4]), 0.0109 µM. Further, the phalloidin staining result is listed as “exhibited phalloidin staining” with mesenchymal stem cells (10 nM); “enhanced phalloidin staining” with mesenchymal stem cells (100 nM and 1 μM). Besides, the “phalloidin (F-actin) staining” value in the data set with mesenchymal stem cells is reported as “significant phalloidin staining”. Further, the “α-SMA immunofluorescence and phalloidin” value in the data set on mesenchymal stem cells was “exhibited both α-SMA immunofluorescence and phalloidin (F-actin) staining”.

Consider `Cc1c2c(=O)n(-c3ccccc3Cl)[nH]c2cc(=O)n1Cc1ccccn1` [FTX8018], for which the oral bioavailability result in data set [1] is on record as “orally bioavailable”. Further, the concentration for half-maximal inhibition (IC50) in data set [2] (setting [3]) came to 0.149 µM.
